From patent US7612107B2, “Treatment and inhibition of disease conditions using flexible heteroarotinoids” (The Board of Regents of the University of Oklahoma, priority 2005, dated 2009)
Like-named read-outs stand apart in the source and are kept apart here.

Legend:
[1] = tested on: organotypic cultures of human ovarian cancer cell lines and primary cultures; assay: Ovarian carcinoma organotypic cultures (TUNEL, histology); assay type: cell-based; conditions: 1 μM retinoid in media
Protocol: FIG. 17. Retinoid effects on ovarian carcinoma organotypic cultures. Organotypic cultures of OVCAR-3 (A, B, E, F, I and J), Caov-3 (C and G), SK-OV-3 (D and H), and O2 (K and L) were grown in the absence (−, top row and K) or presence (+, middle row and I, J and L) of retinoid HetA4 at a concentration of 1 μM in the media. All sections were stained with H&E except for […], which was stained with PAS to detect glycoproteins and glandular differentiation, and J, which was stained with the TUNEL assay to detect apoptosis. All magnifications are 40×.
To test our hypotheses, we evaluated the effects of clinically achievable concentrations of 4-HPR and Flex-Hets on growth, differentiation and apoptosis in ovarian tissue. A series of compounds with a variety of receptor activation profiles were evaluated. In order to evaluate therapeutic effects, we developed an organotypic culture model of ovarian tumors by growing established cell lines and primary cultures inside collagen gels. Monolayer cultures of cells are not accurate representations of in vivo tissue because they lack the types of interactions that cells have with other cells and with the extracellular matrix in vivo. These interactions are known to influence gene expression and thus the constitution and behavior of cells. In our organotypic model, the growth of tumor cells inside the collagen allows a representation of tumors that have invaded stromal tissue. In the presence of fibroblasts, established cell lines and primary cultures of ovarian cancer formed colonies inside the collagen, while normal or benign ovarian epithelial cells remained as single cells inside the collagen. Human ovarian cancer cell lines (OVCAR-3, Caov-3, SK-OV-3, A2780, UCI 101) and primary human cultures (borderline ovarian tumor (O1), serous papillary tumor (O2), benign ovarian cyst (O3)) were cultured inside and on top of a collagen gel seeded with 3T3 fibroblasts for one week. After further incubation in the presence or absence of 1 μM retinoid (media concentration) for 3, 7 or 14 days, cultures were fixed and sectioned for immunohistochemical analysis.
The TUNEL assay was used to evaluate apoptosis in fixed, paraffin embedded, cut sections of the treated and control cultures (FIG. 17). […] These two cellular outcomes appeared to be mutually exclusive.

[2] = tested on: OVCAR-3 xenograft tumors; assay: OVCAR-3 xenograft tumor growth model; assay type: in vivo, mouse; conditions: 10 mg/kg/day by gavage, 5 days per week, 4 weeks
Protocol: Groups of 5 mice bearing OVCAR-3 xenografted tumors were gavaged daily with the indicated drugs in sesame oil (▪ closed square) or with sesame oil alone (∘ open circle). Tumor volumes were measured in 3 dimensions with calipers weekly. Each data point represents the average and standard error of the tumor volumes on the indicated treatment day relative to the tumor volume on day zero. Nu/nu mice were injected subcutaneously with one million OVCAR-3 cells and arbitrarily divided into five groups of six mice each. After three weeks of tumor growth, the animals were gavaged with sesame oil, 10 mg/kg/day 4-HPR, or the indicated Het five times per week for four weeks and the tumors were measured once per week. The tumor sizes were averaged and divided by the average size for each group on the day that treatment was initiated (day 0).
The OVCAR-3 cultures were maintained in RPMI media supplemented with 10% fetal bovine serum. All animal experimentation described in this manuscript was conducted in accord with accepted standards of humane animal care. Twenty-five female NU/NU CD-1 female mice (Charles Rivers Laboratories) were housed in a laminar flow room under sterile conditions at 83-85° F. The mice were quarantined for one week prior to the beginning of the study and were allowed access to autoclaved food (Purina 5001 mouse/rat sterilizable diet, St. Louis, Mo.) and water ad libitum. OVCAR-3 cells in log phase growth were harvested by trypsinization, resuspended in RPMI culture medium, and centrifuged at 3,000 rpm for 10 min. The pellets were resuspended in RPMI culture medium at a concentration of 7×10^6 cells/ml before implantation into mice. Animals were injected with 3.5×10^6 cells into the right scapular region with a 24-gauge needle/1 cc tuberculin syringe. Twenty-four hours after tumor implantation, animals were randomized into 5 groups of 5 animals each.
The Hets SHet50, SHetA2 and SHetA4 were synthesized and their receptor specificity determined as previously described (17,19). The 4-HPR compound was a gift from R.W. Johnson Pharmaceutical Research Institute, Raritan, N.J. All retinoids were dissolved in super refined sesame oil (Croda, Inc., Parsippany, N.J.) and stored at −80° C. Since the retinoids are light sensitive, all manipulations involving retinoids were performed under subdued lighting. […] Tumors were measured with calipers weekly, and tumor volumes were calculated using the formula: volume=length×width×height. Tumor growth was determined by the dividing the volume of the tumor at each weekly measurement by the volume on the first day of treatment. Animal weights and clinical signs of overall health status and cutaneous toxicities were recorded weekly.

[3] = tested on: Raldh2-/- embryos; conditions: for No. of −/− rescued / No. of −/− unrescued: E10.25; for Teratogenesis: mouse, in vivo, po
Protocol: Briefly, retinoids were dissolved in corn oil and administered orally to timed-pregnant Raldh2_/_mice at 12-h intervals on E7.25, E7.75, and E8.25. Dosages varied from 0.025 to 25 mg/kg. At E10.25, embryos were analyzed morphologically to determine whether Raldh2_/_embryos were rescued or whether wild-type embryos had suffered teratogenesis. Detection of embryonic RA was performed in situ in embryos carrying the RARE-lacZ RA-reporter gene by staining for beta-galactosidase activity for 10 h (45).
A mouse model that lacks retinaldehyde dehydrogenase (Raldh2) due to null mutations was used to test the ability of Flex-Hets to substitute for retinoic acid (RA) and induce birth defects. […] We examined the relative ability of all-trans-RA, 9-cis-RA, receptor-specific synthetic retinoids and retinoic acid receptor independent Flex-Hets to rescue the Raldh2_/_embryonic lethal phenotype.

[4] = tested on: dorsal skin; assay: Topical irritancy in Skh hairless mice; assay type: in vivo
Protocol: Female Skh hairless mice, 6-8 weeks old, were treated topically on the dorsal skin for 4 days over a 2-log concentration dose range with various compounds. Retinoic acid receptor-Hets were evaluated in A, while retinoic acid receptor-independent Flex-Hets were evaluated in B. Daily flaking and abrasion scores were combined to calculate a single cutaneous toxicity score for each mouse. Each treatment group consisted of 4 mice, and group averages were used to plot cutaneous toxicity against doses of the compounds.
Topical irritancy was evaluated according to published procedures (29). Briefly, female Skh hairless mice, 6-8 weeks old, were treated topically on the dorsal skin for 4 days over a 2-log concentration dose range with various compounds. Daily flaking and abrasion scores were combined to calculate a single cutaneous toxicity score for each mouse. Each treatment group consists of 4 mice, and group averages are used to plot cutaneous toxicity against dose of the retinoid compound.

[5] = more potent than RA; cited from earlier work
[6] = tested on: human polycystic kidney disease cells; assay: 3-D model of polycystic kidney disease, cyst formation; assay type: cell-based; conditions: 4 μM, 3 weeks
Protocol: FIG. 21. Effects of Flex-Hets on formation of cysts in cultured polycystic kidney disease cells. A primary culture of polycystic kidney cells were grown inside a mixture of collagen I and matrigel and treated with prostaglandin E2 to induce cyst formation. Parallel cultures were treated with 10 micromolar SHetA3 and SHetA4.
The 3-D model of the PKD was developed as described here. Single-cell suspensions of the PCKD cell lines was re-suspended in a 4° C. solution mixture containing rat tail collagen I (Collaborative Biomedical Products, Bedford, Mass.), matrigel (Becton Dickinson) and MEM. The suspension was poured into Falcon cell culture inserts with transparent membranes containing 0.4 μm pores (Becton Dickinson, Franklin Lakes, N.J.) and placed at 37° C. Treatment of cultures was initiated after 1 day of growth and replenished with medium once in every two days. Drugs (Flex-Hets at 4 μM Conc.) and hormones (PGE2 at 25 ng/ml) were administered into the medium surrounding the insert. Untreated control cultures were grown in the same conditions as that of the treated cultures. Drug treatment was carried out for 3 weeks before their effects on growth and inhibition were evaluated.

[7] = topical, dorsal skin, 4 days, 2-log dose range

COC(=O)c1ccc(C(=O)Nc2ccc3c(c2)C(C)(C)CC(C)(C)S3)cc1 [SHet50, reference compound]
Induction of apoptosis (TUNEL) in organotypic cultures [1]: Apoptosis was induced
Growth of xenograft tumors versus sesame oil control [2]: significantly inhibited the growth

CC(Cc1ccc(C(=O)O)cc1)c1ccc2c(c1)C(C)(C)CS2 (stereo not drawn) [SHet100]
Rescue of Raldh2−/− embryos (in words) ([3]; 0.5 mg/kg): typical rescue phenotype
No. of −/− rescued ([3]; Dose 0.025 mg/kg oral): 0
No. of −/− unrescued ([3]; Dose 0.025 mg/kg oral): 2
No. of −/− rescued ([3]; Dose 0.25 mg/kg oral): 2
No. of −/− unrescued ([3]; Dose 0.25 mg/kg oral): 0
No. of −/− rescued ([3]; Dose 0.5 mg/kg oral): 6
No. of −/− unrescued ([3]; Dose 0.5 mg/kg oral): 1
Teratogenesis ([3]; 0.025 mg/kg): 0
Teratogenesis ([3]; 0.25 mg/kg): 0
Teratogenesis ([3]; 0.5 mg/kg): 0
Teratogenesis ([3]; 2.5 mg/kg): 11

CC1(C)CCOc2ccc(C(=O)Oc3ccc(C=NNC(N)=S)cc3)cc21 [OHet72]
Topical irritancy (cutaneous toxicity score) ([4]; mouse, in vivo): did not induce topical irritancy
Rescue of Raldh2−/− embryos (in words) ([3]; 2.5 mg/kg): no rescue
Rescue of Raldh2−/− embryos (in words) ([3]; 10 or 25 mg/kg): no rescue
No. of −/− rescued ([3]; Dose 2.5 mg/kg oral): 0
No. of −/− unrescued ([3]; Dose 2.5 mg/kg oral): 4
No. of −/− rescued ([3]; Dose 10 mg/kg oral): 0
No. of −/− unrescued ([3]; Dose 10 mg/kg oral): 3
No. of −/− rescued ([3]; Dose 25 mg/kg oral): 0
No. of −/− unrescued ([3]; Dose 25 mg/kg oral): 5
Teratogenesis ([3]; 2.5 mg/kg): 0
Teratogenesis ([3]; 10 mg/kg): 0
Teratogenesis ([3]; 25 mg/kg): 0

CC1=C(/C=C/C(C)=C/C=C/C(C)=C/C(=O)O)C(C)(C)CCC1 [All-trans-RA]
No. of −/− rescued ([3]; Dose 1.0 mg/kg oral): 0
No. of −/− unrescued ([3]; Dose 1.0 mg/kg oral): 7
No. of −/− rescued ([3]; Dose 2.5 mg/kg oral): 13
No. of −/− unrescued ([3]; Dose 2.5 mg/kg oral): 1
Teratogenesis ([3]; 1 mg/kg): 0
Teratogenesis ([3]; 2.5 mg/kg): 0

CCOC(=O)c1ccc(OC(=O)c2ccc3c(c2)C(C)(C)CCN3C(C)C)cc1 [NHet17]
Topical irritancy (cutaneous toxicity score) [4, 7]: induced topical irritancy scores in a dose-responsive manner

C/C(=C\c1ccc(C(=O)O)cc1)c1ccc2c(c1)C(C)(C)CCC2(C)C [TTNPB]
Potency relative to RA [5]: 10 fold

CCOC(=O)c1ccc(NC(=O)Nc2ccc3c(c2)C(C)(C)CC(C)(C)S3)cc1 [SHetA4]
Induction of apoptosis (TUNEL) in organotypic cultures [1]: Apoptosis was induced
Topical irritancy (cutaneous toxicity score) ([4]; mouse, in vivo): did not induce topical irritancy
Growth of xenograft tumors versus sesame oil control [2]: significantly inhibited the growth
Differentiated phenotype (tubular structures) [6]: induced the formation of several branched tubular structures
Cyst formation ([6]; PGE2 25 ng/ml): completely eliminated cyst formation

CC1=C(/C=C/C(C)=C/C=C/C(C)=C/C(=O)Nc2ccc(O)cc2)C(C)(C)CCC1 [4-HPR, reference compound]
Induction of apoptosis (TUNEL) in organotypic cultures [1]: Apoptosis was induced
Growth of xenograft tumors versus sesame oil control [2]: significantly inhibited the growth

CC(C=CC=C(C)c1ccc2c(c1)C(C)(C)CS2)=CC(=O)O [SHet65]
Topical irritancy (cutaneous toxicity score) [4, 7]: induced topical irritancy scores in a dose-responsive manner

CC1=C(/C=C/C(C)=C\C=C\C(C)=C\C(=O)O)C(C)(C)CCC1 [9-cis-RA]
Induction of apoptosis (TUNEL) in organotypic cultures [1]: Apoptosis was induced
No. of −/− rescued ([3]; Dose 2.5 mg/kg oral): 2
No. of −/− unrescued ([3]; Dose 2.5 mg/kg oral): 8
No. of −/− rescued ([3]; Dose 10 mg/kg oral): 6
No. of −/− unrescued ([3]; Dose 10 mg/kg oral): 1
Teratogenesis ([3]; 2.5 mg/kg): 0
Teratogenesis ([3]; 10 mg/kg): 0
